According to BindingDB's records for patent US9546164 (Genentech Inc, 2017):
pIC50: −log10 of the molar value.

Target: Sodium channel protein type 9 subunit alpha (Homo sapiens, UniProt Q15858)
Experiment: Radioligand Binding Assay (EP) (In vitro Assay)
Conditions: pH 7.4; 25 °C
Protocol: Binding of this radioligand was preformed in 5 mL borosilicate glass test tubes at room temperature. […] Non-specific binding was determined in the presence of 1 μM unlabelled compound. […] In 360 μL, membranes were incubated with 100 pM [3H]compound and increasing concentrations of Test Compound. Non-specific binding was defined in the presence of 1 μM unlabelled compound. Reactions were transferred and filtered through 96-well glass fiber/C filter plates presoaked with 0.5% polyethylene imine. […] Bound radioactivity was determined by liquid scintillation counting.

Chain of Sodium channel protein type 9 subunit alpha (Q15858 whole entry): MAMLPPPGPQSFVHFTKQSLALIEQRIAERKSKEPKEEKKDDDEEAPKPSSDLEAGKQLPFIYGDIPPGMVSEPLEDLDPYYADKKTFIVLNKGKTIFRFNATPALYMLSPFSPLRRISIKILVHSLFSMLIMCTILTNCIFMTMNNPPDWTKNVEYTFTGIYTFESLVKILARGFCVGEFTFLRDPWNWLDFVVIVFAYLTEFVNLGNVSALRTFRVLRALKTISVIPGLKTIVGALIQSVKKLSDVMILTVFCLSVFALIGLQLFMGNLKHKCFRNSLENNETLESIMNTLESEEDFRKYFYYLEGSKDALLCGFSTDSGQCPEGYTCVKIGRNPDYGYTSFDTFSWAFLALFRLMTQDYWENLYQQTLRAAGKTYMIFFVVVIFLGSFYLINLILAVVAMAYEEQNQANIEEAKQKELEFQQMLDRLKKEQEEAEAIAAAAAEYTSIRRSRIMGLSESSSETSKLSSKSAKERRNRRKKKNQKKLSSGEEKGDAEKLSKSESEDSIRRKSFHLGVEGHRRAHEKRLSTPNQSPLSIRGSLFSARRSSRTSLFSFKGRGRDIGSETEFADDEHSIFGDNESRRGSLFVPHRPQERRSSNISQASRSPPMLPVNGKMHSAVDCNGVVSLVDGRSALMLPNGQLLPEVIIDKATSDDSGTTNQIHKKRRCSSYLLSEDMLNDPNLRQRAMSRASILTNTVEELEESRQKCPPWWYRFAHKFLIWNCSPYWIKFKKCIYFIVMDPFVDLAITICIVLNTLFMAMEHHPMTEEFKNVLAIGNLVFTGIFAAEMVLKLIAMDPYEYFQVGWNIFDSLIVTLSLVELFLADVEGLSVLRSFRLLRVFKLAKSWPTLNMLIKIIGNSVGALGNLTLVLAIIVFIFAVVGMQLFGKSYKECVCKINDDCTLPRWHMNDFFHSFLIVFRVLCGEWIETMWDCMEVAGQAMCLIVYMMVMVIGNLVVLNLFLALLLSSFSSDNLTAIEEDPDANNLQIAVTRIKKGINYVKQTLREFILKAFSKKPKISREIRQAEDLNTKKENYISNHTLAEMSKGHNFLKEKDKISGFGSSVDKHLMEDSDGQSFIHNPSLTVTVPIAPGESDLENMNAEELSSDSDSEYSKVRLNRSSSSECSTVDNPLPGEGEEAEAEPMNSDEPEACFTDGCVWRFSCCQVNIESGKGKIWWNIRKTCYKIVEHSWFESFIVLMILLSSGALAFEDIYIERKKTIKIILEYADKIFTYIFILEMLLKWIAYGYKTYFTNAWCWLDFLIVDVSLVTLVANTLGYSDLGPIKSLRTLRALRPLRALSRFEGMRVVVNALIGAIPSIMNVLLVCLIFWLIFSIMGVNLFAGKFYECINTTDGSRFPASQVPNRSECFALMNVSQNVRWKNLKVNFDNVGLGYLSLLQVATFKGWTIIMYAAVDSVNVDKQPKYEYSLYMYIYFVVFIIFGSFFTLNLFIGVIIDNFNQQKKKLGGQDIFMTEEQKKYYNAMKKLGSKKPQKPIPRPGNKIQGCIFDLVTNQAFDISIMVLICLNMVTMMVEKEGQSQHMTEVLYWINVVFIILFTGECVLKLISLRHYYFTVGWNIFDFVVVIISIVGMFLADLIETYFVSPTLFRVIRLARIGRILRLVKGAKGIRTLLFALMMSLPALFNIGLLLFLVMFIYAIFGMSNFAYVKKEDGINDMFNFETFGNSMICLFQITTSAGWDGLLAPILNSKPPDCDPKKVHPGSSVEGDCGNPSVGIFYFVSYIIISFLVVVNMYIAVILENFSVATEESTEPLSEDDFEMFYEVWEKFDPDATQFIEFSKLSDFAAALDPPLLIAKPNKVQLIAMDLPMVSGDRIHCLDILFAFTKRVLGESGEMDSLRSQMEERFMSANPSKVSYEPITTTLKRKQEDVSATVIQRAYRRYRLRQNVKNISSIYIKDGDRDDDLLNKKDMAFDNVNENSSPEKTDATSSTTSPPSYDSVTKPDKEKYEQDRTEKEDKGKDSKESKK

**Q.** With `O=C(NS(=O)(=O)N1CCC1)c1cc(C2CC2)c(OCC2CC3CCC(C2)N3C(c2ccccc2)c2ccccc2)cc1F` (stereo not drawn) [US9546164, 49] as the compound, how does the pIC50 read?
**A.** 8.37

**Q.** With `CS(=O)(=O)NC(=O)c1cc(C2CC2)c(OCC2(F)CN(C(c3ccccc3)c3ccccc3)C2)cc1F` [US9546164, 67] as the compound, how does the pIC50 read?
**A.** 8.10

**Q.** With `CC(C)(C)OC(=O)N1CCC(COc2cc(F)c(C(=O)NS(C)(=O)=O)cc2Cl)CC1` [US9546164, 78] as the compound, how does the pIC50 read?
**A.** 6.31

**Q.** `CC1(COc2cc(F)c(C(=O)NS(C)(=O)=O)cc2C2CC2)CCN(Cc2cc(C(F)(F)F)ccc2C(F)(F)F)CC1` [US9546164, 107] was tested. Which pIC50 did it give?
**A.** 8.68

**Q.** `CC(c1ccc(OC(F)(F)F)cc1)N1CC(COc2cc(F)c(C(=O)NS(C)(=O)=O)cc2C2CC2)C1` (stereo not drawn) [US9546164, 157] was tested. Which pIC50 did it give?
**A.** 7.45

**Q.** How did the pIC50 turn out when `CS(=O)(=O)NC(=O)c1cc(C2CC2)c(OCC2(F)CCN(Cc3cc(Cl)ccc3C(F)(F)F)CC2)cc1F` [US9546164, 348] was run?
**A.** 8.35

**Q.** With `CS(=O)(=O)NC(=O)c1cc(C2CC2)c(OCC2CCN(S(=O)(=O)c3cc(F)c(F)c(F)c3)CC2)cc1F` [US9546164, 380] as the compound, how does the pIC50 read?
**A.** 7.39

**Q.** `O=C(NS(=O)(=O)C1CC1)c1cc(C2CC2)c(OCC2CCN(S(=O)(=O)c3ccc4ccccc4c3)CC2)cc1F` [US9546164, 389] was tested. Which pIC50 did it give?
**A.** 8.06
